Experiments:
[1] = biological target: T1, CYP19 (aromatase) (Homo sapiens, UniProt P11511); experiment: Selectivity: effect on CYP19 (aromatase); type: biochemical; conditions: concentration as high as 5 μM
T1 sequence (P11511 1-503): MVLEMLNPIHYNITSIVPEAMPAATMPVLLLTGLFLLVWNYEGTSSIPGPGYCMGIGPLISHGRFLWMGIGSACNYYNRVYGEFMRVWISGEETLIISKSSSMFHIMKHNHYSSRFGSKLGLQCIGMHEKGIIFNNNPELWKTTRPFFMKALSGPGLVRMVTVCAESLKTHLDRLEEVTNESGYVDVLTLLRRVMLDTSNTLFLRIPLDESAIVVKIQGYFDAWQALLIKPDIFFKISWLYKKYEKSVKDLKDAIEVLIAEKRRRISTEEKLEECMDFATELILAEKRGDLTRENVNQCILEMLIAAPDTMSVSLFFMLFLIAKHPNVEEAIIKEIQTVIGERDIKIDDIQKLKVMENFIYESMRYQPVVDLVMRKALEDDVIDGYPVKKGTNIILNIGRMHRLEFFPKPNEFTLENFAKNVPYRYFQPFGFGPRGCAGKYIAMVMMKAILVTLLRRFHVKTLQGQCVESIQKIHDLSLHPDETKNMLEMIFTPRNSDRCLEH
Protocol: The selectivity of the compounds of the present invention towards ATRA-4-hydroxylase was tested by measuring the effect on the key enzymes in the biosynthesis of estradiol and dehydroepiandrosterone, CYP19 (aromatase) and CYP17 (17-lyase), respectively.

[2] = biological target: T2, RARα (Homo sapiens, UniProt P10276); experiment: Competitive [3H]ATRA binding to recombinant RARα; conditions: for binding to RARα: concentrations up to 500 nM
T2 construct: Recombinant full-length RAR proteins were expressed as S-Tag fusion proteins in BL21 E. coli cells; S-Tag; made in house; host or cells: E. coli BL21
T2 sequence (P10276 1-462): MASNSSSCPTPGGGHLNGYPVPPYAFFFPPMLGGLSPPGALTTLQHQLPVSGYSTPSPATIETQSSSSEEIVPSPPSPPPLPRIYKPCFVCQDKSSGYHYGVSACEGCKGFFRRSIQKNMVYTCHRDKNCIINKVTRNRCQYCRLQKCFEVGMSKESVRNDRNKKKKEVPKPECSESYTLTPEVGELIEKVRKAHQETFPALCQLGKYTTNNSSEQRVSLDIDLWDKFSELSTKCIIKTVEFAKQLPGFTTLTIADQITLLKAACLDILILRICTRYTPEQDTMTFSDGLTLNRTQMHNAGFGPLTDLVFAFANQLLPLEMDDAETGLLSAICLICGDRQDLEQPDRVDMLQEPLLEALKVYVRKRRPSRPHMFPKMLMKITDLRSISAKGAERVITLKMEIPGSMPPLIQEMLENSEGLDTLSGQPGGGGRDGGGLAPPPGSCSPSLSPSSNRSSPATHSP
Text: (§1) Because the novel compounds are retinoid-related analogs, they bind to the retinoid receptors in vivo and thus have increased therapeutic potentials. Similar to ATRA, these novel compounds act as a ligand for the retinoic acid receptors (RARs, α, β, and γ) but not the retinoid X receptors (RXRs, α, β, and γ). […] (Nervi C, Grippo J F, Sherman M I, George M D, Jetten A M, Identification and characterization of nuclear retinoic acid-binding activity inhuman myeloblastic leukemia HL-60 cells, Proc Natl Acad Sci USA 86: 5854-5858, 1989) The dissociation constants for the inhibitors is determined by the well described charcoal absorption method (Yang N, Schule R, Mangelsdorf D J, Evans R M, Characterization of DNA binding and retinoic acid binding properties of retinoic acid receptor, Proc Natl Acad Sci USA 88: 3559-3663, 1991). Briefly, serial dilutions of the novel compounds (10^−11 to 10^−5 M) in dimethyl sulfoxide, 100 μL each is used. 12 mg of crude cytosolic extracts is prepared from pET15b (Novagen, Madison, Wis.)/hRAR-α, -β, and -γ prepared protein is used for each data point. All reactions are conducted in binding buffer (60 mM Na imidazole, 500 mM NaCl, 20 mM Tris, pH 7.9) for 14-16 hours at 4° C. in a final volume of 1 mL. Unbound [^3H]ATRA is removed by addition of 0.5 mL of equivalent-sized dextran-treated charcoal (final concentration 3% [wt/vol]) for 15 minutes at 4° C. […]
(§2) Since the RAMBAs are retinoic acid analogs, it is possible that some of the compounds may bind to retinoid receptors and function as either transcriptional agonists/antagonists or may display anti AP-1 activity (Chambon P, A decade of molecular biology of retinoic acid, FASEB J 10: 5899-5904, 19962. The ability of three RAMBAs, VN/14-1, VN/50A-1 and VN/66-1 to bind to the individual RAR receptors was thus evaluated in vitro. Recombinant full-length RAR proteins were expressed as S-Tag fusion proteins in BL21 E. coli cells used for competitive binding assays. Each competition-binding assay contained 1 nM [^3H] […]

[3] = biological target: T3, RARγ (Homo sapiens, UniProt P13631); experiment: Competitive [3H]ATRA binding to recombinant RARγ; conditions: for binding to RARγ: concentrations up to 500 nM
T3 construct: Recombinant full-length RAR proteins were expressed as S-Tag fusion proteins in BL21 E. coli cells; S-Tag; made in house; host or cells: E. coli BL21
T3 sequence (P13631 1-454): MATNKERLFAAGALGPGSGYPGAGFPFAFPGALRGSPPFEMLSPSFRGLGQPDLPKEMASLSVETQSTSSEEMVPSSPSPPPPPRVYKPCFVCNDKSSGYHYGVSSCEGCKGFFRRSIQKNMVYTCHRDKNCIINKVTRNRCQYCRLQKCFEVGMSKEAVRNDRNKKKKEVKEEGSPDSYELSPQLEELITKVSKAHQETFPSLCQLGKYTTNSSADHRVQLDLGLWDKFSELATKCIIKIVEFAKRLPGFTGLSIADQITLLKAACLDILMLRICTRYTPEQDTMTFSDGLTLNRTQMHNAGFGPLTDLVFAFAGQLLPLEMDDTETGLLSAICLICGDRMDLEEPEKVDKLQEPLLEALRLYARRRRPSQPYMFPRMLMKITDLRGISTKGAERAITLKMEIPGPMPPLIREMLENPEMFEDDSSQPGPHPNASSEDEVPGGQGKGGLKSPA
Text: as §1, §2

[4] = 1 nM [3H]ATRA, competitor 1 nM to 500 nM

SMILES	inhibition of CYP19 (aromatase) [1]	IC50 [2, 4] [nM]	IC50 [3, 4] [nM]	binding to RARα [2]	binding to RARγ [3]
CC1=C(/C=C/C(C)=C/C=C/C(C)=C/C(=O)O)C(C)(C)CCC1n1ccnc1 (racemic) [VN/14-1, (±)-4-(1H-imidazole-1-yl)retinoic acid]	barely inhibited	~16	~16	–	–
CC(C=CC1=C(C)C(n2ccnc2)CCC1(C)C)=CC=CC(C)=CC(=O)Nc1ccc(O)cc1 (racemic) [VN/66-1, (±)-4-(1H-imidazol-1-yl), N-(4′-hydroxyphenyl)retinamide]	barely inhibited	–	–	did not bind	did not bind
CC(C=CC1=C(C)C(n2ccnc2)CCC1(C)C)=CC=CC(C)=CC(=O)n1ccnc1 (stereo not drawn) [VN/50A-1]	barely inhibited	–	–	did not bind	did not bind

— patent US20120122908A1, “Novel C-4 Substituted Retinoids” (University of Maryland, priority 2000, published 2012)
